Laboratory results taken from patent US10905676B2, “Angiotensin II receptor antagonist for the prevention or treatment of systemic diseases in cats” (priority 2017, dated 2021).

Experiments:
[1] = Safety after repeated oral administration over four weeks (Example 3); format: in vivo, cats
Description: 5-5. 1 kg were used in this study. The animals were allocated to 3 groups, 4 animals per group. […] The bottles with the test/control article looked identical with the exception of the animal no. in order to achieve blinding.
Blood samples for haematology and clinical chemistry were collected from the animals on days-1 (i.e. prior to the first treatment) and again on days 3, 7, 14, 28. Body weights were measured weekly and electrocardiography recording were made on days −1, 14, 21 and 28. A detailed physical examination including determination of rectal temperature and respiratory rate was carried out on days -1, 7, 14, 22 and 28. Systolic blood pressure (once daily) and heart rate (twice daily) were determined five days per week beginning prior to treatment until necropsy. The palatability of the administered article was assessed at various time points throughout treatment using a scoring system. On day 28 of the study, all animals were subjected to necropsy and stomach and kidneys were examined histopathologically. Relevant parameters were analysed using appropriate statistical procedures.

[2] = tested on: cats with moderate to severe systemic hypertension; assay: European study of efficacy and safety in cats with systemic hypertension (Example 6); format: in vivo
Description: A European study was conducted to investigate the efficacy and safety of telmisartan oral solution for the treatment of systemic hypertension in cats. The first part or phase of the study (Day 1 to Day 28) occurred over a 28-day placebo-controlled, double-blinded treatment period (efficacy phase of the study). […] The target population for this study was domestic client-owned cats with moderate to severe systemic hypertension (cats having a mSBP of at least about 160 mmHg). […] A schematic overview of the study and the two phases of treatment is depicted in FIG. 3. There was a similar pre-treatment mSBP observed for both treatment groups (about 177-179 mmHg). Cats diagnosed with moderate to severe systemic hypertension in compliance with the “ACVIM consensus statement: Guidelines for the Identification, Evaluation, and Management of Systemic Hypertension in Dogs and Cats” (Brown et al. Guidelines for the identification, evaluation, and management of systemic hypertension in dogs and cats. ACVIM Consensus Statement. J Vet Intern Med 2007; 21: 542-558) at two separate Screening Visits within 14 days of the start of treatment were eligible for the study. The etiology of the hypertension was classified as due to chronic kidney disease (CKD), due to hyperthyroidism, due to both CKD and hyperthyroidism or as idiopathic hypertension. Cats were not allowed any substances which are known to affect blood pressure from 14 days prior to the start of treatment. […] A 5 mL dosing syringe (demarcated in 0.25 mL increments) was used for the first phase and a 2 mL dosing syringe (demarcated in 0.1 mL increments, to achieve down titrations as necessary) to perform dosing either directly into the mouth of the cat or with a very small amount of food. For the first (efficacy) phase of the study, all recruited cats were examined on two visits at Day 14 and Day 28. Examinations included measurement of mSBP, a complete physical examination, fundoscopic examination, an assessment of quality of life, and abbreviated clinical pathology (hematology and biochemistry). […] These cats were further examined, as above, for visits at Days 56, 84 and 120. During the second (extended) phase of the study, it was possible to decrease or down titrate the dose for certain cats as described herein.

CCCc1nc2c(C)cc(-c3nc4ccccc4n3C)cc2n1Cc1ccc(-c2ccccc2C(=O)O)cc1 [telmisartan, 4′-[2-n-propyl-4-methyl-6-(1-methylbenzimidazol-2-yl)-benzimidazol-1-ylmethyl]-biphenyl-2-carboxylic acid]
physical and ECG examinations ([1]; all time points): did not reveal treatment-related findings
histopathology of stomach and kidneys ([1]; day 28): no histopathological findings considered to be associated with the treatment
necropsy findings ([1]; day 28): No animal showed any specific finding
body weights, rectal temperature, respiratory and heart rates ([1]; during the course of the study): No significant differences
clinical findings ([1]; entire study period, 1 and 3 mg/kg once daily): No clinical findings clearly attributable to the treatment
haematological and clinical chemistry parameters including differential leukocyte count ([1]; treated groups vs concurrent controls): No treatment-related differences
mSBP change on Day 28 ([2]; 2.0 mg/kg once daily oral, n = 165): −24.629 ΔmmHg
mSBP change on Day 14 ([2]; 2.0 mg/kg once daily oral, n = 174): −19.219 ΔmmHg
Mean SABP reduction compared to baseline at respective visit ([2]; SABP at baseline between 160-179 mmHg (171.9), Day 14, n = 98): −16.7 ΔmmHg
Mean SABP reduction compared to baseline at respective visit ([2]; SABP at baseline between 160-179 mmHg, Day 28, n = 94): −22.9 ΔmmHg
Mean SABP reduction compared to baseline at respective visit ([2]; SABP at baseline between 160-179 mmHg, Day 56, n = 87): −24.7 ΔmmHg
Mean SABP reduction compared to baseline at respective visit ([2]; SABP at baseline between 160-179 mmHg, Day 84, n = 85): −23.2 ΔmmHg
Mean SABP reduction compared to baseline at respective visit ([2]; SABP at baseline between 160-179 mmHg, Day 120, n = 81): −23.5 ΔmmHg
Mean SABP reduction compared to baseline at respective visit ([2]; SABP at baseline between 180-200 mmHg (188.4), Day 14, n = 76): −22.3 ΔmmHg
Mean SABP reduction compared to baseline at respective visit ([2]; SABP at baseline between 180-200 mmHg, Day 28, n = 71): −26.6 ΔmmHg
Mean SABP reduction compared to baseline at respective visit ([2]; SABP at baseline between 180-200 mmHg, Day 56, n = 65): −29.6 ΔmmHg
Mean SABP reduction compared to baseline at respective visit ([2]; SABP at baseline between 180-200 mmHg, Day 84, n = 63): −30.7 ΔmmHg
Mean SABP reduction compared to baseline at respective visit ([2]; SABP at baseline between 180-200 mmHg, Day 120, n = 63): −32.9 ΔmmHg
% of cats with Systolic Blood Pressure < 160 mmHg ([2]; Visit Day 14): 46.6%
N of cats with Systolic Blood Pressure < 160 mmHg ([2]; Visit Day 14): 81
% of cats with Systolic Blood Pressure < 160 mmHg ([2]; Visit Day 56): 70.9%
N of cats with Systolic Blood Pressure < 160 mmHg ([2]; Visit Day 56): 105
% of cats with Systolic Blood Pressure < 160 mmHg ([2]; Visit Day 84): 67.8%
N of cats with Systolic Blood Pressure < 160 mmHg ([2]; Visit Day 84): 97
% of cats with Systolic Blood Pressure < 160 mmHg ([2]; Visit Day 120): 73.1%
N of cats with Systolic Blood Pressure < 160 mmHg ([2]; Visit Day 120): 98
% of cats with Systolic Blood Pressure < 160 mmHg ([2]; Visit day 28): 62.0%
N of cats with Systolic Blood Pressure < 160 mmHg ([2]; Visit day 28): 101
cats with an increased appetite ([2]; between day −1 and 28): 11%
reduction in mSBP (mean change in SBP from baseline) ([2]; each visit day, whole study duration of 120 days): greater than 20 mmHg
cats with adverse events ([2]; efficacy phase, 115 adverse events coded for 58 cats): 29.9%
cats in which it was possible to down-titrate the dose to <2 mg/kg ([2]; extended use phase): 21.7%
Mean Systolic Blood Pressure change on Day 120 compared to baseline SBP ([2]; extended use phase, n = 144 cats): −27.62 ΔmmHg
Mean Systolic Blood Pressure change on Day 84 compared to baseline SBP ([2]; extended use phase, n = 148 cats): −26.50 ΔmmHg
Mean Systolic Blood Pressure change on Day 56 compared to baseline SBP ([2]; extended use phase, n = 152 cats): −26.94 ΔmmHg
changes in a physical or clinical pathology parameter ([2]; following 120 days of treatment): no clinically relevant changes
mean body weight, mean heart rate, respiratory rate, and rectal temperature ([2]; following 120 days treatment): no clinically significant change
cats with at least one adverse event ([2]; second (extended use) phase, 62 cats): 32.0%
